Results taken from patent US7422848B2, “Hepatitis-B viral variants with reduced susceptibility to nucleoside analogs and uses thereof” (priority 2005, dated 2008).
“Also recorded” adds a separate entry of the source.

Legend:
[1] = test system: wild type HBV; experiment: HBV replication in transiently transfected Huh7 cell lines (Real-time PCR), wild type HBV; conditions: supernatant at end of 5th day
[2] = test system: HBV; experiment: Example 3: second patient, antiviral therapy of HBV infection (HBV DNA, ALT, AST); type: in vivo, human; conditions: lamivudine (Zeffix) 100 mg/day; before breakthrough
Source text: A person is a patient with HBsAg (+) and Anti-HBe (+).

[3] = test system: HBV; experiment: Case study patient: antiviral therapy of chronic HBV infection (HBV DNA, ALT); type: in vivo, human; conditions: patient after clinical breakthrough, IFN 9 MU/TIW 6 months, Hepsera 10 mg/day 14 months
Method: HBV DNA levels were measured by using a commercial liquid-hybridization assay (Digene, Maryland, US), with the lower limit of detection of this assay being 5 pg/mL of viral DNA.
Lamuvidine was continued after the development of clinical breakthrough. […] Hepsera™ (Adefovir dipovoxil) 10 mg/day was added to lamivudine monotherapy at 44th month of initial antiviral therapy and 3 months after stopping IFN.
Blood counts and liver-function tests (alanine and aspartate aminotransferases) were done according to routine biochemical procedures (Olympus AU 2700 autoanalyzer, Japan).

[4] = test system: HBV; conditions: human, in vivo; cited from earlier work
[5] = test system: HBV; experiment: Published clinical studies of ADF (Perrillo 2004, Peters 2004, Angus 2003, Yang 2003); conditions: ADF added to the therapy; implied from cited studies
[6] = 0.1 μM antiviral, 3 independent experiments
[7] = 1 μM antiviral, 3 independent experiments

Structure (SMILES) | HBV replication in transiently transfected Huh7 cell lines (Mean log HBV copy number ± standard deviation) [1, 6] [log HBV copy number] | HBV replication in transiently transfected Huh7 cell lines (Mean log HBV copy number ± standard deviation) [1, 7] [log HBV copy number] | HBV DNA levels following lamivudine treatment [2] | ALT and HBV replication response when added to ongoing lamivudine (in words) [3] | ALT and HBV replication response when added to ongoing lamivudine (in words) ([3]; listed as Hepsera™) | Adefovir treated patients revealing the resistance mutation rtN236T [4] | Patients not achieving a significant reduction in HBV DNA levels [5] | HBV replication in transiently transfected Huh7 cell lines (Mean log HBV copy number ± standard deviation) ([1]; 10 μM antiviral, n.d. = not detectable)
Nc1ccn([C@@H]2CS[C@H](CO)O2)c(=O)n1 [3TC, β-L-(−)-2′,3′-dideoxy-3′-thiacytidine] | 4.1 ± 0.8 | 2.32 ± 1.62 | less than 5 pg/mL | – | – | – | – | –
CC(C)(C)C(=O)OCOP(=O)(COCCn1cnc2c(N)ncnc21)OCOC(=O)C(C)(C)C [adefovir dipivoxil] | – | – | – | neither suppressed HBV replication nor decreased serum ALT levels | neither inhibition of HBV replication nor ALT normalization occurred; also recorded: did not lead to inhibition of HBV replication and ALT normalisation | – | – | –
Nc1ncnc2c1ncn2CCOCP(=O)(O)O [Adefovir, 9-(2-phosphonyl-methoxyethyl)-adenine] | 1.15 ± 1.62 | 0.32 ± 0.58 | – | – | – | 1.7-2.5% | 8-15% | no detectable HBV DNA
